Laboratory results from patent US10294202B2, “Pyrrolidinones as herbicides” (FMC Corporation, priority 2013, dated 2019).

How the values were obtained:
[1] = system: canarygrass; test: Test D pre-/postemergence herbicide test; type: in vivo, Phalaris minor; conditions: for Plant response rating: Canarygrass, scale 0 to 100; for Plant response rating, Canarygrass: scale 0 to 100 (0 no effect, 100 complete control)
In short: (§1)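 Seeds sown in silt loam were sprayed preemergence with test chemicals in a non-phytotoxic solvent mixture with surfactant. Postemergence plants grown in peat/vermiculite medium were treated at 2–18 cm (1- to 4-leaf stage). After 7 to 21 days in a controlled environment, injury was rated visually versus controls, 0 (no effect) to 100 (complete control).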

[2] = system: chickweed; test: Test D pre-/postemergence herbicide test; type: in vivo, Stellaria media; conditions: for Plant response rating: Chickweed, scale 0 to 100; for Plant response rating, Chickweed: scale 0 to 100 (0 no effect, 100 complete control)
In short: as §1

[3] = system: speedwell; test: Test D pre-/postemergence herbicide test; type: in vivo, Veronica persica; conditions: for Plant response rating: Postemergence, Speedwell, scale 0 to 100; for Plant response rating, Speedwell: Preemergence, scale 0 to 100 (0 no effect, 100 complete control)
In short: as §1

[4] = system: velvetleaf; test: Test E preemergence herbicide test; type: in vivo, Abutilon theophrasti; set-up: key: 0 = no effect, 100 = complete control
In short: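 Seeds sown in silt loam soil received preemergence treatment with compound in a non-phytotoxic solvent mixture containing surfactant. After 21 days in the greenhouse, plants were visually rated against untreated controls on a 0 (no effect) to 100 (complete control) scale.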

[5] = system: cocklebur; test: Test C pre-/postemergence herbicide test; type: in vivo, Xanthium strumarium
In short: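 Visual rating, 0 (no effect) to 100 (complete control), versus untreated controls after 13 to 15 days in the greenhouse. Pre: seeds in loam/sand, sprayed at planting. Post: 1- to 4-leaf plants (2 to 18 cm) in peat-based mix. Compounds in non-phytotoxic solvent plus surfactant.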

[6] = Preemergence, 62 g ai/ha, scale 0 to 100
[7] = Preemergence, 31 g ai/ha, scale 0 to 100 (0 no effect, 100 complete control)
[8] = Preemergence, 250 g ai/ha, scale 0 to 100 (0 no effect, 100 complete control)

Structure (SMILES) | Plant response rating ([1]; Postemergence, 31 g ai/ha) | Plant response rating ([1]; Postemergence, 62 g ai/ha) | Plant response rating ([1]; Postemergence, 125 g ai/ha) | Plant response rating ([1]; Postemergence, 250 g ai/ha) | Plant response rating, Canarygrass ([1]; Preemergence, 62 g ai/ha) | Plant response rating, Canarygrass ([1]; Preemergence, 31 g ai/ha) | Plant response rating ([1]; Preemergence, 125 g ai/ha) | Plant response rating ([2]; Postemergence, 31 g ai/ha) | Plant response rating ([2]; Postemergence, 62 g ai/ha) | Plant response rating ([2]; Postemergence, 125 g ai/ha) | Plant response rating ([2]; Postemergence, 250 g ai/ha) | Plant response rating ([3]; 31 g ai/ha) | Plant response rating ([3]; 62 g ai/ha) | Plant response rating ([3]; 125 g ai/ha) | Plant response rating ([3]; 250 g ai/ha) | Plant response rating, Velvetleaf ([4]; 16 g ai/ha) | Plant response rating, Velvetleaf ([4]; 31 g ai/ha) | Plant response rating, Velvetleaf ([4]; 62 g ai/ha) | Plant response rating, Velvetleaf ([4]; 125 g ai/ha) | Plant response rating, Velvetleaf ([4]; 250 g ai/ha) | other results
O=C1NCC(c2ccc(C(F)(F)F)cc2)C1C(=O)Nc1cccc(F)c1F (stereo not drawn) [Compound 80, N-(2,3-difluorophenyl)-2-oxo-4-[4-(trifluoromethyl)phenyl]-3-pyrrolidinecarboxamide] | 0 | 0 | 0 | 0 | 0 | 0 | 10 | 35 | 45 | 85 | 85 | 60 | 70 | 70 | 65 | 0 | 0 | 0 | 0 | 0 | Plant response rating ([1]; Preemergence, 250 g ai/ha): 20; Plant response rating, Chickweed ([2]; Preemergence, 62 g ai/ha): 100; Plant response rating, Chickweed ([2]; Preemergence, 31 g ai/ha): 85; Plant response rating ([2]; Preemergence, 125 g ai/ha): 100; Plant response rating ([2]; Preemergence, 250 g ai/ha): 100; Plant response rating, Speedwell ([3]; 62 g ai/ha): 85; Plant response rating, Speedwell ([3]; 125 g ai/ha): 85; Plant response rating, Speedwell ([3]; 31 g ai/ha): 10; Plant response rating, Speedwell ([3]; 250 g ai/ha): 100
O=C1NCC(c2ccc(F)c(F)c2)C1C(=O)Nc1cccc(F)c1F (stereo not drawn) [Compound 17, N-(2,3-difluorophenyl)-4-(3,4-difluorophenyl)-2-oxo-3-pyrrolidinecarboxamide] | 0 | 0 | 0 | 0 | – | – | – | 0 | 0 | 25 | 30 | 0 | 0 | 0 | 0 | 0 | 0 | 0 | 0 | 0 | Plant response rating, Cocklebur ([5]; Postemergence, 31 g ai/ha, scale 0 (no effect) to 100 (complete control)): 0; Plant response rating, Cocklebur ([5]; Postemergence, 62 g ai/ha, scale 0 to 100 (0 no effect, 100 complete control)): 0; Plant response rating, Cocklebur ([5]; Postemergence, 125 g ai/ha, scale 0 to 100 (0 no effect, 100 complete control)): 0; Plant response rating, Cocklebur ([5]; Postemergence, 250 g ai/ha, scale 0 to 100 (0 no effect, 100 complete control)): 0; Plant response rating, Cocklebur [5, 6]: 5; Plant response rating, Cocklebur ([5]; Preemergence, 125 g ai/ha, scale 0 to 100 (0 no effect, 100 complete control)): 5; Cocklebur plant response rating [5, 7]: 0; Plant response rating, Cocklebur [5, 8]: 5; Plant response rating ([1]; Postemergence, 16 g ai/ha): 0; Plant response rating ([2]; Postemergence, 16 g ai/ha): 0; Plant response rating ([3]; 16 g ai/ha): 0
O=C1NCC(c2ccc(Cl)c(Cl)c2)C1C(=O)Nc1ccccc1F (racemic) [Compound 14] | – | – | – | – | – | – | – | – | – | – | – | – | – | – | – | 0 | 0 | 0 | 0 | 0 | Plant response rating, Cocklebur [5, 6]: 0; Cocklebur plant response rating [5, 7]: 0; Plant response rating, Cocklebur [5, 8]: 0
O=C1NCC(c2ccc(C(F)(F)F)cc2)C1C(=O)Nc1cccc(F)c1F (racemic) [Compound 202] | 0 | 0 | 0 | 0 | 10 | 5 | 60 | 75 | 75 | 80 | 80 | 60 | 75 | 85 | 90 | – | 0 | 0 | 0 | 40 | Plant response rating ([1]; Preemergence, 250 g ai/ha): 75; Plant response rating, Chickweed ([2]; Preemergence, 62 g ai/ha): 80; Plant response rating, Chickweed ([2]; Preemergence, 31 g ai/ha): 45; Plant response rating ([2]; Preemergence, 125 g ai/ha): 90; Plant response rating ([2]; Preemergence, 250 g ai/ha): 95; Plant response rating, Speedwell ([3]; 62 g ai/ha): 90; Plant response rating, Speedwell ([3]; 125 g ai/ha): 90; Plant response rating, Speedwell ([3]; 31 g ai/ha): 90; Plant response rating, Speedwell ([3]; 250 g ai/ha): 100
